According to the Kinase Knowledgebase extract (Sharma et al. 2016):

Legend:
[1] = biological target: PIK3CB (Human) (UniProt P42338); test: Assessment of PIK3CB Kinase Binding Activity
[2] = biological target: PIK3CG (human) (UniProt P48736); test: Assessment of PIK3CG Kinase Binding Activity
[3] = biological target: PIK3CD (Human) (UniProt O00329); test: Assessment of PIK3CD Kinase Binding Activity
[4] = biological target: PIK3CA (human) (UniProt P42336); test: Assessment of PIK3CA Kinase Binding Activity
[5] = biological target: PIK3CA (human) (UniProt P42336); test: Inhibition of PIK3CA Kinase Activity
[6] = biological target: PIK3CA (human) (UniProt P42336); test: Inhibition of A2780 Cell Proliferation

Chain of PIK3CB (Human) (P42338 whole entry, looked up): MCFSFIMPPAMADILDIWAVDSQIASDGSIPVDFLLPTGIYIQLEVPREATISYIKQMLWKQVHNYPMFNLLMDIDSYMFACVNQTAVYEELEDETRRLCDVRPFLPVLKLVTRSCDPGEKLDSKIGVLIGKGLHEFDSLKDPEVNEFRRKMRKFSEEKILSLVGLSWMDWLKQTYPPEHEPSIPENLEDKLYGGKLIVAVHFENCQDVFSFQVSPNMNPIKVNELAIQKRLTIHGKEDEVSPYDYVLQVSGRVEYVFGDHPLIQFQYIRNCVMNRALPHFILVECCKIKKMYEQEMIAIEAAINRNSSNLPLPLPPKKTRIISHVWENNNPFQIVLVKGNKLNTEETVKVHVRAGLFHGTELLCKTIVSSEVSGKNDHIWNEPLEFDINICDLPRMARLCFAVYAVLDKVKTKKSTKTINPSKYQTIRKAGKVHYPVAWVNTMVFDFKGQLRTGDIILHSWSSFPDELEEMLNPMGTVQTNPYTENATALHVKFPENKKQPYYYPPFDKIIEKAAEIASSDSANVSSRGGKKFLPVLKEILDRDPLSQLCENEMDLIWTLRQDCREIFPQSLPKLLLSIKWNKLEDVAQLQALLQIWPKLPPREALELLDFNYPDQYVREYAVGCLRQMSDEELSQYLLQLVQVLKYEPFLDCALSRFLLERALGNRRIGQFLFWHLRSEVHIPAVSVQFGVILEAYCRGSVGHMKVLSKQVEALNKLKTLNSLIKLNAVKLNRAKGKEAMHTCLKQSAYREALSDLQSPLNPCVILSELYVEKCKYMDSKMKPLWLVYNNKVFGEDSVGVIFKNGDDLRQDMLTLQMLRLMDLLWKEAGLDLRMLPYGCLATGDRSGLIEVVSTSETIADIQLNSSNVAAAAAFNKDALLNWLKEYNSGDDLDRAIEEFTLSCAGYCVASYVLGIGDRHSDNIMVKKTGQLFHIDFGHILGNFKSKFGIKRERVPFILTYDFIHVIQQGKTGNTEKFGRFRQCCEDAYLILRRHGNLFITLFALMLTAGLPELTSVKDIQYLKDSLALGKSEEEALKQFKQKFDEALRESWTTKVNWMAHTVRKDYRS
Chain of PIK3CG (human) (P48736 whole entry, looked up): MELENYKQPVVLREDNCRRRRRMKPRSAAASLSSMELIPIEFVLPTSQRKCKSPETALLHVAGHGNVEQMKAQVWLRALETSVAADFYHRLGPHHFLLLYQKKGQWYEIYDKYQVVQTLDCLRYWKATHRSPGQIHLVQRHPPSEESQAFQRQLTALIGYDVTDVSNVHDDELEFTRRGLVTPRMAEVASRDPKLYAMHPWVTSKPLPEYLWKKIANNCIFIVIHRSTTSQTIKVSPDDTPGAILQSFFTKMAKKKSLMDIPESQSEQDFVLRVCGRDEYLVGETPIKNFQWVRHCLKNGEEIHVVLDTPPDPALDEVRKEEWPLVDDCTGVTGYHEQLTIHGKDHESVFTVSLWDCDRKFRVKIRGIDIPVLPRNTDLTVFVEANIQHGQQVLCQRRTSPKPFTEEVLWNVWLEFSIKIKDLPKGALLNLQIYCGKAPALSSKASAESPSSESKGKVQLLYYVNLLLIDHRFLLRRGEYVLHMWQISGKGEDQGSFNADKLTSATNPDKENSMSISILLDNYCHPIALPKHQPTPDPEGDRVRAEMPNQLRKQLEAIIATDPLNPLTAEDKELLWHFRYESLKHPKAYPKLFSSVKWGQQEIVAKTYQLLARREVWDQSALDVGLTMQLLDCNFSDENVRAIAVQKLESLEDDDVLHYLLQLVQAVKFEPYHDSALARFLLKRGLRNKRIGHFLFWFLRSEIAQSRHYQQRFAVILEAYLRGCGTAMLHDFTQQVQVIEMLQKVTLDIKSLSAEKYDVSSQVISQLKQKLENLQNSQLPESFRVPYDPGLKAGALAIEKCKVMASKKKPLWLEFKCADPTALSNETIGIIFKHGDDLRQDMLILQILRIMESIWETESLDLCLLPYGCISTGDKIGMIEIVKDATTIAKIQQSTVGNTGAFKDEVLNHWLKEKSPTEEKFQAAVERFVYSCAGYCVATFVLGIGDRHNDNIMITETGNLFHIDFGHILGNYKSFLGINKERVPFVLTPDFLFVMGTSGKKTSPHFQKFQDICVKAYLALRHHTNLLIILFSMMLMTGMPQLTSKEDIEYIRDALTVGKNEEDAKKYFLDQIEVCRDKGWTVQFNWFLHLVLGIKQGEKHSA
Chain of PIK3CA (human) (P42336 whole entry, looked up): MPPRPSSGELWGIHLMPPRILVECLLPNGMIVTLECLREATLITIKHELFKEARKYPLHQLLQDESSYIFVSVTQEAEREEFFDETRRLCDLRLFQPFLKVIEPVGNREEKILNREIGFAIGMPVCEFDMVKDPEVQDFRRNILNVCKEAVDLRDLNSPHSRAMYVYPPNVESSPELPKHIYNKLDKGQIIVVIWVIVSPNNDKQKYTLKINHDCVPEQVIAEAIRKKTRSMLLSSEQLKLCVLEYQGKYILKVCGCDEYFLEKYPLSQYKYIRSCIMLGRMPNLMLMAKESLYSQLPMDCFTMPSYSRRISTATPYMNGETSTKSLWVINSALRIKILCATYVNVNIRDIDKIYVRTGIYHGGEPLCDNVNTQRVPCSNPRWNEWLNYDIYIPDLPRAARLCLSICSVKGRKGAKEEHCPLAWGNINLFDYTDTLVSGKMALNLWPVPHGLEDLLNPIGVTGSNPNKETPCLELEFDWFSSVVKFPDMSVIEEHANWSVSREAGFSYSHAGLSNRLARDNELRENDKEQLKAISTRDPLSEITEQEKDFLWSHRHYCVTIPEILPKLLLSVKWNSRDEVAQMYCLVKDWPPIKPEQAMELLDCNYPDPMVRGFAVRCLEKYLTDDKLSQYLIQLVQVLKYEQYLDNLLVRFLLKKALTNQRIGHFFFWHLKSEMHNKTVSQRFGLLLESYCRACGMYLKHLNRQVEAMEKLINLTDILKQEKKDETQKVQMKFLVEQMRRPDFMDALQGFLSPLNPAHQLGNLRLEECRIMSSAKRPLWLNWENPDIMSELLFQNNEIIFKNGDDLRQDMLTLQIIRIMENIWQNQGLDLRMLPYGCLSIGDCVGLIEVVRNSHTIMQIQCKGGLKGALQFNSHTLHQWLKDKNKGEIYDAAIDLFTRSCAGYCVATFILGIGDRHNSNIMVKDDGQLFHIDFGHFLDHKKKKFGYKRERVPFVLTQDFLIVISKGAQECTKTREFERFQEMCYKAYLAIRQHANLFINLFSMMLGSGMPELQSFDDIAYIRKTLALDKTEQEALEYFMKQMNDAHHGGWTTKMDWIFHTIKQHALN
Chain of PIK3CD (Human) (O00329 whole entry, looked up): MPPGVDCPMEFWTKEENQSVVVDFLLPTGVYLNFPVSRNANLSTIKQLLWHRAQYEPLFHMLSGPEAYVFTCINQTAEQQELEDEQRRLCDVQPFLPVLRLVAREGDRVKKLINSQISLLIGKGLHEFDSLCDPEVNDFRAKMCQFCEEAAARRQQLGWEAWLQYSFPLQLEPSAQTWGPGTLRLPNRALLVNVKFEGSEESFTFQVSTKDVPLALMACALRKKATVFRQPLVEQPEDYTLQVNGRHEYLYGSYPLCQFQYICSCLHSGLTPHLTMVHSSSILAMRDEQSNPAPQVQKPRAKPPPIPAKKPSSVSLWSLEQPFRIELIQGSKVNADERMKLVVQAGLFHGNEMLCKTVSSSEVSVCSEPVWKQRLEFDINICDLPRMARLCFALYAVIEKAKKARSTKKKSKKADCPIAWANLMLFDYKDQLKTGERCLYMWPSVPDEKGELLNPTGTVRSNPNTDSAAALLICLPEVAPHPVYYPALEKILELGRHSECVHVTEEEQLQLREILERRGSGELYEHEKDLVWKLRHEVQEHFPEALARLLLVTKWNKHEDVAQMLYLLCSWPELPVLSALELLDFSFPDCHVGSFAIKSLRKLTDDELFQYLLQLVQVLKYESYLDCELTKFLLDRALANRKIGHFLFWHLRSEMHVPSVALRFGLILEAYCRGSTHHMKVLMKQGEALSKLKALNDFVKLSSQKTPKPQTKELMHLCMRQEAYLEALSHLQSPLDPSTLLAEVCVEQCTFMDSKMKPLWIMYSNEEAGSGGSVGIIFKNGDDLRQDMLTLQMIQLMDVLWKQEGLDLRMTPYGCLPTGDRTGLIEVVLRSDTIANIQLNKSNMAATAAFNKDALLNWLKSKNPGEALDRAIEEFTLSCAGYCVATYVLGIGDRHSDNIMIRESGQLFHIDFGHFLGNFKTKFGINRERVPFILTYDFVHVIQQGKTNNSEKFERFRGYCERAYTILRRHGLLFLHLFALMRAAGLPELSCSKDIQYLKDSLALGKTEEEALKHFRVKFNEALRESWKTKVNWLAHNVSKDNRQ

Row | SMILES | Ki [1] | Ki [2] | Ki [3] | Ki [4] | IC50 [5] | EC50 [6]
1 | CC(C)n1nnc(CCNC(=O)Nc2cn3cc(-c4ccc(N)nc4)ccc3n2)n1 | < 1 µM | < 1 µM | < 1 µM | < 10 µM |  | 
2 | CC(C)n1nnc(CCNC(=O)Nc2cn3cc(-c4cnc(N)c(C(F)(F)F)c4)ccc3n2)n1 | < 1 µM | < 1 µM | < 1 µM | < 1 µM |  | 
3 | CCc1cnc(CCNC(=O)Nc2cn3cc(-c4cnc(N)c(C(F)(F)F)c4)ccc3n2)o1 | < 1 µM | < 1 µM | < 1 µM | < 1 µM |  | 
4 | CC(C)(C)OC(=O)N1CCC[C@H]1C(=O)Nc1cn2nc(-c3cnc(N)c(C(F)(F)F)c3)ccc2n1 |  |  |  |  | < 1 µM | < 25 µM
5 | CC(C)(C)OC(=O)N1CC[C@H](OCC(=O)Nc2cn3nc(-c4cnc(N)c(C(F)(F)F)c4)ccc3n2)C1 |  |  |  |  | < 1 µM | < 1 µM
6 | CC(=O)Nc1cn2cc(-c3cnc(N)c(C#N)c3)ccc2n1 |  |  |  |  | < 1 µM | < 10 µM
7 | CC(=O)Nc1cn2cc(-c3cnc(N)c(-c4ccccc4F)c3)ccc2n1 |  |  |  |  | < 1 µM | < 10 µM
8 | CCOC(=O)CC(=O)Nc1cn2cc(-c3cnc(N)c(C(F)(F)F)c3)ccc2n1 |  |  |  |  | < 1 µM | < 10 µM
9 | CC(=O)Nc1cn2cc(-c3cnc(N)c(OC4CN(C(=O)c5ccccc5)C4)n3)ccc2n1 |  |  |  |  | < 1 µM | < 10 µM
10 | COc1nc(-c2cc(F)c3nc(NC(C)=O)cn3c2)cnc1N |  |  |  |  | < 1 µM | < 25 µM
11 | N#Cc1cccc(C(=O)Nc2cn3cc(-c4cnc(N)c(C(F)(F)F)c4)ccc3n2)c1 |  |  |  |  | < 1 µM | < 10 µM
12 | CC(=O)Nc1cccc(-c2c(NC(C)=O)nc3ccc(-c4cnc(N)c(C(F)(F)F)c4)cn23)c1 |  |  |  |  | < 1 µM | < 25 µM
13 | Cc1cc(C(=O)Nc2cn3cc(-c4cnc(N)c(C(F)(F)F)c4)ccc3n2)no1 |  |  |  |  | < 1 µM | < 1 µM
14 | CCN(CC)C(=O)c1cc(-c2ccc3nc(NC(C)=O)cn3c2)cnc1N |  |  |  |  | < 1 µM | < 10 µM
15 | COCCOc1nc(-c2ccc3nc(NC(=O)C4CCN4C(C)=O)cn3c2)cnc1N (centres undefined) |  |  |  |  | < 1 µM | < 10 µM
16 | CC(=O)Nc1cn2cc(-c3cnc(N)c(-c4ccccc4OC(F)(F)F)c3)ccc2n1 |  |  |  |  | < 1 µM | < 10 µM
17 | CC(=O)Nc1cn2c(C)c(-c3cnc(N)c(C(F)(F)F)c3)ccc2n1 |  |  |  |  | < 1 µM | < 10 µM
18 | CC(=O)Nc1cn2nc(-c3cnc(N)cn3)ccc2n1 |  |  |  |  | < 1 µM | < 25 µM
19 | Nc1ncc(-c2ccc3nc(NC(=O)N4CCC(C(=O)O)C4)cn3c2)cc1C(F)(F)F (centres undefined) |  |  |  |  | < 1 µM | < 25 µM
20 | CC(=O)Nc1nc2ccc(-c3cnc(N)c(Br)c3)cn2c1Br |  |  |  |  | < 1 µM | < 10 µM
21 | CN(C)C1CCN(C(=O)Nc2cn3cc(-c4cnc(N)c(C(F)(F)F)c4)ccc3n2)C1 (centres undefined) |  |  |  |  | < 1 µM | < 10 µM
22 | CC(=O)Nc1cn2cc(-c3cnc(N)c(OC4CCC4)n3)ccc2n1 |  |  |  |  | < 1 µM | < 1 µM
23 | CC(=O)Nc1cn2cc(-c3cnc(N)c(C(=O)N4CCNCC4)c3)ccc2n1 |  |  |  |  | < 1 µM | < 25 µM
24 | CC(=O)Nc1cn2cc(-c3cnc(N)c(C(F)(F)F)c3)c(F)cc2n1 |  |  |  |  | < 1 µM | < 25 µM

Results, then the molecule that gave them:

Row | Ki [1] | Ki [2] | Ki [3] | Ki [4] | IC50 [5] | EC50 [6] | SMILES
25 | < 1 µM | < 1 µM | < 1 µM | < 1 µM |  |  | CCn1nnc(CCNC(=O)Nc2cn3cc(-c4cnc(N)c(C(F)(F)F)c4)ccc3n2)n1
26 | < 1 µM | < 1 µM | < 1 µM | < 1 µM |  |  | CCc1nnn(CCNC(=O)Nc2cn3cc(-c4cnc(N)c(C(F)(F)F)c4)ccc3n2)n1
27 | < 1 µM | < 1 µM | < 1 µM | < 1 µM |  |  | Nc1ncc(-c2ccc3nc(NC(=O)NCCn4nnc(C5CC5)n4)cn3c2)cc1C(F)(F)F
28 |  |  |  |  | < 1 µM | < 25 µM | COc1cc(-c2ccc3nc(NC(C)=O)cn3c2C)cnc1N
29 |  |  |  |  | < 1 µM | < 25 µM | CC(=O)Nc1cn2cc(-c3cnc(N)c(-c4ccc(F)cc4)c3)ccc2n1
30 |  |  |  |  | ≥ 25 µM | < 10 µM | COc1cc(-c2ccc3nc(NC(C)=O)cn3c2)c(C)nc1N
31 |  |  |  |  | < 1 µM | < 10 µM | Nc1ncc(-c2ccc3nc(NC(=O)C4CCN4)cn3c2)nc1OCC(F)(F)F (centres undefined)
32 |  |  |  |  | < 10 µM | < 25 µM | CCN(CC)CCOc1cc(-c2ccc3nc(NC(C)=O)cn3c2)cnc1N
33 |  |  |  |  | < 1 µM | < 1 µM | Nc1ccc(C(=O)Nc2nc3ccc(-c4cnc(N)c(C(F)(F)F)c4)cc3s2)cn1
34 |  |  |  |  | < 1 µM | < 10 µM | COCCOc1nc(-c2ccc3nc(NC(C)=O)sc3c2)cnc1N
35 |  |  |  |  | < 1 µM | < 25 µM | CC(=O)Nc1nc2ccc(-c3cnc(N)c(C(F)(F)F)c3)cn2c1Br
36 |  |  |  |  | < 1 µM | < 10 µM | CC(=O)Nc1nc2ccc(-c3cnc(N)c(C(F)(F)F)c3)cn2c1C#Cc1ccccc1
37 |  |  |  |  | < 1 µM | < 10 µM | Nc1ncc(-c2ccc3nc(NC(=O)COC4CCNCC4)cn3c2)cc1C(F)(F)F
38 |  |  |  |  | < 1 µM | < 25 µM | CCCNc1ccc(-c2ccc3nc(NC(C)=O)sc3c2)cn1
39 |  |  |  |  | < 1 µM | < 25 µM | CC(=O)Nc1cn2cc(-c3cnc(N)c(C(=O)N4CCCC4)c3)ccc2n1
40 |  |  |  |  | < 1 µM | < 25 µM | CC(=O)Nc1nc2ccc(-c3cnc(N)c(C(F)(F)F)c3)cn2c1-c1cccc(F)c1
41 |  |  |  |  | < 1 µM | < 1 µM | CC(=O)Nc1cn2nc(-c3cnc(N)c(Cl)c3)ccc2n1
42 |  |  |  |  | < 1 µM | < 1 µM | COCC(=O)Nc1cn2nc(-c3cnc(N)c(C(F)(F)F)c3)ccc2n1
43 |  |  |  |  | < 1 µM | < 25 µM | CNC(=O)c1ccc(-c2c(NC(C)=O)nc3ccc(-c4cnc(N)c(C(F)(F)F)c4)cn23)cc1
44 |  |  |  |  | < 1 µM | < 1 µM | CC(=O)Nc1cn2cc(-c3cnc(N)c(-c4ccccc4N4CCOCC4)c3)ccc2n1
45 |  |  |  |  | < 1 µM | < 25 µM | CC(=O)Nc1nc2ccc(-c3cnc(N)c(C(F)(F)F)c3)cn2c1-c1ccc(C(N)=O)cc1
46 |  |  |  |  | < 1 µM | < 10 µM | CN(CC(=O)Nc1cn2nc(-c3cnc(N)c(C(F)(F)F)c3)ccc2n1)C(=O)OC(C)(C)C
47 |  |  |  |  | < 1 µM | < 10 µM | CC(=O)Nc1cn2nc(-c3cnc(N)c(CN4CCCC4)c3)ccc2n1
48 |  |  |  |  | < 1 µM | < 25 µM | CC(=O)Nc1cn2cc(-c3cnc(N)c(C(=O)N4CCN(C(=O)OC(C)(C)C)CC4)c3)ccc2n1
49 |  |  |  |  | < 1 µM | < 1 µM | CC(=O)Nc1cn2cc(-c3cnc(N)c(C(=O)NCCN4CCCC4)n3)ccc2n1
50 |  |  |  |  | < 1 µM | < 25 µM | Nc1ncc(-c2ccc3nc(NC(=O)c4ccncc4)cn3c2)cc1C(F)(F)F
51 |  |  |  |  | < 1 µM | < 10 µM | Nc1ncc(-c2ccc3nc(NC(=O)C4CNC4)cn3c2)cc1C(F)(F)F
